Results from patent US10975434B2, “Growth differentiation factor 15 as biomarker for metformin” (Sanofi-Aventis Deutschland GmbH, priority 2015, dated 2021).

Assays:
[1] = test system: GDF15; experiment: Chronic metformin in high-fat diet, serum GDF15 in obese C57bl6 mice; format: in vivo, mouse; settings: obese insulin-resistant mice, 2.5 g/kg metformin in 60% high-fat diet for 6 weeks, versus untreated controls; P<0.05
Method: (§1) For the acute experiments, 12 (i.e. 6 per group) 20-week old male C57bl6 mice (Jackson Laboratories) were fasted for 12 hours then allowed to feed ad libitum for 2 hours prior to injection with either metformin (250 mg/kg in 10 μl/g body weight saline) or vehicle (10 μl/g body weight saline) intraperitoneally. Blood was collected 90 minutes later by tail vein bleed, and serum was assayed for GDF15 levels using the Elisa described above (R&D Systems, Minneapolis, Minn.). […] Fed bloods were sampled by tail vein bleed from the animals at the end of the treatment period and serum GDF15 measured as above. Animal experiments were all approved by the McMaster University Animal Ethics Committee.

[2] = Outcomes during follow-up of biomarker study participants by baseline metformin use
[3] = test system: GDF15 mRNA; experiment: GDF15 messenger RNA expression in primary hepatocytes (BeadChip); format: cell-based, mouse; settings: primary C57Bl6 hepatocytes, metformin 0.5 mM versus vehicle; P=0.003
Method: To further understand the link between metformin and GDF15 levels, in vitro experiments were conducted using mouse hepatocytes. Primary hepatocytes from 4 different C57Bl6 wild-type male mice were isolated by collagenase digestion as previously described^14. Briefly, cells were plated on 12-well collagen-coated plates overnight in William's Media E containing 10% fetal bovine serum (FBS) and 1% antibiotic-antimycotic. […] Media was then snap frozen and stored at −80° C. for later analyses, and cells were harvested in cell lysis buffer for assessment of total protein or RNA.
GDF15 release into the media was measured using a commercially available ELISA kit (R&D Systems, Minneapolis, Minn.) and expressed per mg of hepatocyte protein. Total RNA was isolated using the Trizol plus RNA Purification kit (Ambion), concentrated with Speedvac (Thermo), and then quantified using Quant-IT RiboGreen (LifeTech). Total RNA was then reverse transcribed and amplified using the Illumina TotalPrep RNA Amplification Kit (LifeTech) according to the manufacturer's protocol. Samples were hybridized to the Illumina Mouse Ref-8 v2.0 complementary DNA BeadChip and scanned on the iScan System (Illumina). The raw sample probe profile and control probe profile were exported from GenomeStudio version 1.9.0 (Illumina). […]

[4] = test system: GDF15; experiment: Acute metformin injection, serum GDF15 in C57bl6 mice; format: in vivo, mouse; settings: 250 mg/kg intraperitoneally, male C57bl6 mice, versus saline; P<0.05
Method: as §1

[5] = test system: GDF15; experiment: Multiplex serum biomarker analysis: GDF15 level versus metformin use and dose; format: in vivo, human; settings: serum of people taking varying doses of metformin; FIG. 2
Method: At Myriad RBM Inc., the samples were thawed at room temperature (RT), vortexed, spun at 13,000 g for 5 minutes for clarification, and an aliquot was removed into a master microtiter plate for analysis. Using automated pipetting, an aliquot of each sample was introduced into one of the capture microsphere multiplexes of the Human DiscoveryMAP. The mixtures of sample and capture microspheres were thoroughly mixed and incubated at RT for 1 hour. Multiplexed cocktails of biotinylated reporter antibodies for each multiplex (such as GDF-15), were then added robotically, and after thorough mixing, were incubated for an additional hour at RT. Multiplexes were developed using an excess of streptavidinphycoerythrin solution which was thoroughly mixed into each multiplex and incubated for 1 hour at RT. […] Testing results were determined first for the high, medium and low controls for each multiplex to ensure proper assay performance. Unknown values for each of the analytes localized in a specific multiplex were determined using 4 and 5 parameter, weighted and non-weighted curve fitting algorithms included in the data analysis package^40. […]
The 237 available biomarkers were analyzed to identify those that were statistically independent determinants of the use of metformin using unadjusted logistic regression models and forward selection. […]

[6] = share of the 2317 participants on metformin at baseline

CN(C)C(=N)NC(=N)N [Metformin, metformin]
serum GDF 15 levels after chronic treatment [1]: significantly increased | Expanded Composite CV Outcome during follow-up, number of participants ([2]; participants on metformin at baseline, N 2317, P 0.008 vs no metformin): 622 | Death during follow-up, number of participants ([2]; participants on metformin at baseline, N 2317, P 0.01 vs no metformin): 331 | Composite CV Outcome during follow-up, number of participants ([2]; participants on metformin at baseline, N 2317, median follow-up 6.2 years, P 0.007 vs no metformin): 346 | Composite CV Outcome during follow-up, value in parentheses [2, 6]: (14.9) | Death during follow-up, value in parentheses [2, 6]: (14.3) | Expanded Composite CV Outcome during follow-up, value in parentheses [2, 6]: (26.8) | increase in GDF15 mRNA [3]: 1.6 fold | 90 minute serum levels of GDF 15 [4]: significantly increased | mean concentration of GDF15 by metformin dose [5]: rose with progressively higher doses
